Patent publication US20090005390A1, “NOVEL QUINUCLIDINE DERIVATIVES AND THEIR USE” (N[…]/S, priority 2002, published 2009)

What was measured:
[1] = target: T1, α7-subtype of nicotinic receptors (Rattus norvegicus, UniProt Q05941); test: In vitro inhibition of 3H-α-bungarotoxine binding in rat brain; details: rat cerebral cortex homogenate; 3H-α-bungarotoxine 2 nM; 2 hours at 37° C.
T1 construct: Cerebral cortices from male Wistar rats (150-250 g) are homogenised; from tissue; host or cells: rat cerebral cortex membrane homogenate
T1 sequence (Q05941 23-502): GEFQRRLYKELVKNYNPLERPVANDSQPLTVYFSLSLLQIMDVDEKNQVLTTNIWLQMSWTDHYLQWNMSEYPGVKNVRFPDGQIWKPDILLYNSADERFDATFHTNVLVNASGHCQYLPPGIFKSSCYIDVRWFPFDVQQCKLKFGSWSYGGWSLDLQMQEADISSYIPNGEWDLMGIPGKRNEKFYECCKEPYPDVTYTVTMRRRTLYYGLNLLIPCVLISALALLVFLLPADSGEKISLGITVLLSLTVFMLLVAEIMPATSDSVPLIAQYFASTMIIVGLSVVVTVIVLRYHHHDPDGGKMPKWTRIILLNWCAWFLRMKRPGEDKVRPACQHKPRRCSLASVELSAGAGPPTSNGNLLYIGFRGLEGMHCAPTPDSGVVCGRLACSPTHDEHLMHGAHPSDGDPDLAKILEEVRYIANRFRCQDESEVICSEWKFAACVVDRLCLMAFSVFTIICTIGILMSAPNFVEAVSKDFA

## O=C(O)/C=C/C(=O)O.c1cncc(-c2ccc(OC3CN4CCC3CC4)nn2)c1 (racemic)
other
  melting point: 137.2 to 143.2 °C

## Fc1ccc(-c2cnc(OC3CN4CCC3CC4)s2)c(F)c1.O=C(O)/C=C/C(=O)O (racemic)
other
  melting point: 84.3 to 86.3 °C

## O=C(O)/C=C/C(=O)O.c1cc(-c2cnc(OC3CN4CCC3CC4)s2)co1 (racemic) [Compound D5, (±)-3-[5-(3-Furanyl)-thiazol-2-yloxy]-1-aza-bicyclo[2.2.2]octane fumaric acid salt]
[1]
  IC50: 48 nM
other
  melting point: 127.6 to 136.2 °C

## O=C(O)/C=C/C(=O)O.c1ccc(-c2ccc(OC3CN4CCC3CC4)cc2)cc1 (racemic) [Compound A2, (±)-3-(4-Phenylphenyloxy)-1-aza-bicyclo[2.2.2]octane fumaric acid salt]
[1]
  IC50: 160 nM
other
  melting point: 173.5 to 185.1 °C

## O=C(O)/C=C/C(=O)O.c1csc(-c2cnc(OC3CN4CCC3CC4)s2)c1 (racemic) [Compound D4, (±)-3-[5-(2-Thienyl)-thiazol-2-yloxy]-1-aza-bicyclo[2.2.2]octane fumaric acid salt]
[1]
  IC50: 20 nM
other
  melting point: 152.6 to 154.9 °C

## O=C(O)/C=C/C(=O)O.c1ccc2sc(OC3CN4CCC3CC4)nc2c1 (racemic) [Compound B3, (±)-3-(Benzothiazol-2-yloxy)-1-aza-bicyclo[2.2.2]octane fumaric acid salt]
[1]
  IC50: 170 nM
other
  melting point: 173.7 to 174.2 °C

## O=C(O)/C=C/C(=O)O.c1cc2c(cc1OC1CN3CCC1CC3)CCCC2 (racemic)
other
  melting point: 109.7 to 111.3 °C

## O=C(O)/C=C/C(=O)O.c1ccc2oc(OC3CN4CCC3CC4)nc2c1 (racemic)
other
  melting point: 187.2 to 188.8 °C

## Clc1ccc2nc(OC3CN4CCC3CC4)sc2c1.O=C(O)/C=C/C(=O)O (racemic) [Compound B2, (±)-3-(6-Chloro-benzothiazol-2-yloxy)-1-aza-bicyclo[2.2.2]octane fumaric acid salt]
[1]
  IC50: 180 nM
other
  melting point: 203 to 205 °C

## O=C(O)/C=C/C(=O)O.c1cnc2ccc(OC3CN4CCC3CC4)cc2c1 (racemic)
other
  melting point: 146 to 147 °C

## O=C(O)/C=C/C(=O)O.c1ccc2c(OC3CN4CCC3CC4)nsc2c1 (racemic)
other
  melting point: 172.3 to 173.6 °C

## O=C(O)/C=C/C(=O)O.c1cc(-c2cnc(OC3CN4CCC3CC4)s2)cs1 (racemic) [Compound D3, (±)-3-[5-(3-Thienyl)-thiazol-2-yloxy]-1-aza-bicyclo[2.2.2]octane fumaric acid salt]
[1]
  IC50: 110 nM
other
  melting point: 68.5 to 74.3 °C

## O=C(O)/C=C/C(=O)O.c1ccc(-c2nnc(OC3CN4CCC3CC4)s2)cc1 (racemic)
other
  melting point: 168.5 to 172 °C

## O=C(O)/C=C/C(=O)O.c1ccc(-c2cnc(OC3CN4CCC3CC4)s2)cc1 (racemic) [Compound D1, (±)-3-(5-Phenyl-thiazol-2-yloxy)-1-aza-bicyclo[2.2.2]octane fumaric acid salt]
[1]
  IC50: 52 nM
other
  melting point: 170.9 to 172.2 °C

## O=C(O)/C=C/C(=O)O.c1cc(-c2ccc(OC3CN4CCC3CC4)nn2)co1 (racemic)
other
  melting point: 224.8 to 225.4 °C

## COc1nc2ccccc2nc1OC1CN2CCC1CC2.O=C(O)/C=C/C(=O)O (racemic)
other
  melting point: 168.5 to 170 °C

## Clc1ccc(OC2CN3CCC2CC3)nn1.O=C(O)/C=C/C(=O)O (racemic)
other
  melting point: 164 to 164.5 °C

## Clc1nc2ccccc2nc1OC1CN2CCC1CC2.O=C(O)/C=C/C(=O)O (racemic)
other
  melting point: 120.8 to 122.1 °C

## Cn1c(OC2CN3CCC2CC3)nc2ccccc21.O=C(O)/C=C/C(=O)O (racemic)
other
  melting point: 184.9 to 185.9 °C

## C.I.c1ccc2c(OC3CN4CCC3CC4)nsc2c1 (racemic)
other
  melting point: 180.1 to 186.4 °C

## O=C(O)/C=C/C(=O)O.c1cc(-c2nnc(OC3CN4CCC3CC4)s2)cs1 (racemic) [Compound B17, (±)-3-[5-(3-Thienyl)-1,3,4-thiadiazol-2-yloxy]-1-aza-bicyclo[2.2.2]octane fumaric acid salt]
[1]
  IC50: 150 nM
other
  melting point: 186 to 188 °C

## Brc1ccc(OC2CN3CCC2CC3)nn1.O=C(O)/C=C/C(=O)O (racemic)
other
  melting point: 152.8 °C

## O=C(O)/C=C/C(=O)O.c1ccc(-c2ccccc2OC2CN3CCC2CC3)cc1 (racemic)
other
  melting point: 125.4 °C

## O=C(O)/C=C/C(=O)O.c1ccc2nc(OC3CN4CCC3CC4)cnc2c1 (racemic)
other
  melting point: 127.7 to 128.5 °C

## O=C(O)/C=C/C(=O)O.c1cc2c(cc1OC1CN3CCC1CC3)CCC2 (racemic)
other
  melting point: 149.3 to 150.5 °C

## O=C(O)/C=C/C(=O)O.c1ccc2cc(OC3CN4CCC3CC4)ccc2c1 (racemic)
other
  melting point: 140.9 to 141.6 °C

## C.I.c1ccc2nc(OC3CN4CCC3CC4)ccc2c1 (racemic)
other
  melting point: 156.6 to 175.2 °C

## O=C(O)/C=C/C(=O)O.c1cc(-c2ccc(OC3CN4CCC3CC4)nn2)cs1 (racemic) [Compound D7, (±)-3-[6-(3-Thienyl)-pyridazin-3-yloxy]-1-aza-bicyclo[2.2.2]octane fumaric acid salt]
[1]
  IC50: 130 nM
other
  melting point: 197.9 °C

## O=C(O)/C=C/C(=O)O.c1csc(-c2ccc(OC3CN4CCC3CC4)nn2)c1 (racemic) [Compound D8, (±)-3-[6-(2-Thienyl)-pyridazin-3-yloxy]-1-aza-bicyclo[2.2.2]octane fumaric acid salt]
[1]
  IC50: 53 nM
other
  melting point: 180.3 to 191.1 °C

## O=C(O)/C=C/C(=O)O.c1ccc(-c2ccc(OC3CN4CCC3CC4)nn2)cc1 (racemic)
other
  melting point: 168.5 to 172 °C

## O=C(O)/C=C/C(=O)O.c1cncc(-c2cnc(OC3CN4CCC3CC4)s2)c1 (racemic) [Compound D6, (±)-3-[5-(3-Pyridyl)-thiazol-2-yloxy]-1-aza-bicyclo[2.2.2]octane fumaric acid salt]
[1]
  IC50: 180 nM
other
  melting point: 82.7 to 86 °C

## Brc1cnc(OC2CN3CCC2CC3)s1.O=C(O)/C=C/C(=O)O (racemic)
other
  melting point: 157.8 to 162.1 °C

## O=C(O)/C=C/C(=O)O.c1coc(-c2ccc(OC3CN4CCC3CC4)nn2)c1 (racemic)
other
  melting point: 175.8 to 178.2 °C

## C.I.c1ccc2nc(OC3CN4CCC3CC4)cnc2c1 (racemic)
other
  melting point: 229 to 230 °C

## O=C(O)/C=C/C(=O)O.c1ccc2nc(OC3CN4CCC3CC4)ccc2c1 (racemic)
other
  melting point: 160 to 160.5 °C
